Columns and labels:
[1] = Permeability of the compound by PAMPA
[2] = biological target: Dual specificity mitogen-activated protein kinase kinase 1 (Homo sapiens) (UniProt Q02750); test: Inhibition of human MKK1 at 100 nM
[3] = biological target: Serine/threonine-protein kinase Sgk1 (Homo sapiens) (UniProt O00141); test: Inhibition of human SGK1 at 100 nM
[4] = biological target: Ribosomal protein S6 kinase alpha-5 (Homo sapiens) (UniProt O75582); test: Inhibition of human MSK1 at 100 nM
[5] = biological target: MAP kinase-interacting serine/threonine-protein kinase 2 (Homo sapiens) (UniProt Q9HBH9); test: Inhibition of human MNK2 at 100 nM
[6] = biological target: Mitogen-activated protein kinase 1 (Homo sapiens) (UniProt P28482); test: Inhibition of human ERK2 at 100 nM
[7] = biological target: Proto-oncogene tyrosine-protein kinase Src (Homo sapiens) (UniProt P12931); test: Inhibition of human Src at 100 nM
Homo sapiens = species: Homo sapiens; conditions: at 100 nM
Description: Inhibition of human PKA at 100 nM

[8] = biological target: Ribosomal protein S6 kinase alpha-1 (Homo sapiens) (UniProt Q15418); test: Inhibition of human RSK1 at 100 nM
[9] = biological target: Insulin receptor-related protein (Homo sapiens) (UniProt P14616); test: Inhibition of human IRR at 100 nM
[10] = biological target: T1, Inhibitor of nuclear factor kappa-B kinase subunit epsilon (Homo sapiens) (UniProt Q14164); conditions: at 100 nM
T1 sequence (whole entry): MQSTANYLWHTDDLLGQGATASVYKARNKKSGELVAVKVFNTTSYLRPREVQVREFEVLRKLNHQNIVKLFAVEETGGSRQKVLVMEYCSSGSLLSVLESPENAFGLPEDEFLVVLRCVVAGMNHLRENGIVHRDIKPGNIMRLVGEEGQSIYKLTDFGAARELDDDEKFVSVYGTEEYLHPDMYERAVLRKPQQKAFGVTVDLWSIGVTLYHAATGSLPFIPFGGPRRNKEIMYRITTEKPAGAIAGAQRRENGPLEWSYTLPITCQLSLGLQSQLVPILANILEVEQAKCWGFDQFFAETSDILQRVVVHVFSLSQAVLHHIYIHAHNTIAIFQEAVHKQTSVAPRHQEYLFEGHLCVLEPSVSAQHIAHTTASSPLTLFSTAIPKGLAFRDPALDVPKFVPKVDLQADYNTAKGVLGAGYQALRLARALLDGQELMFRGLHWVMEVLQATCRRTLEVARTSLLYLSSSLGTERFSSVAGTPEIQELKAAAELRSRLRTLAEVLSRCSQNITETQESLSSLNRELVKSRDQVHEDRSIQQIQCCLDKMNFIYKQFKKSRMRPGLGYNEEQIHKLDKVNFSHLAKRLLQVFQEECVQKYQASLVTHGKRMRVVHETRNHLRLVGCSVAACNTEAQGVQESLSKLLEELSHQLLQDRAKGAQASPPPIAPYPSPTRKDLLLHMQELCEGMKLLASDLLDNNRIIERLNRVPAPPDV
Description: Inhibition of human IKKepsilon at 100 nM

[11] = biological target: Casein kinase I isoform alpha (Homo sapiens) (UniProt P48729); test: Inhibition of human CK1 at 100 nM
[12] = biological target: Serine/threonine-protein kinase pim-1 (Homo sapiens) (UniProt P11309); test: Inhibition of human PIM1 at 100 nM
[13] = biological target: SRSF protein kinase 1 (Homo sapiens) (UniProt Q96SB4); test: Inhibition of human SRPK1 at 100 nM
[14] = biological target: Ephrin type-B receptor 3 (Homo sapiens) (UniProt P54753); test: Inhibition of human EPHB3 at 100 nM
[15] = biological target: cGMP-dependent protein kinase (Plasmodium falciparum, UniProt W7JX98); test: Inhibition of Plasmodium falciparum protein kinase G
[16] = biological target: AMP-activated protein kinase, AMPK (Homo sapiens) (UniProt P54646+O43741+P54619+Q9UGJ0+Q9Y478+Q13131+Q9UGI9); test: Inhibition of human AMPK at 100 nM; format: protein-complex assay

Sequence of Casein kinase I isoform alpha (Homo sapiens) (P48729 2-337 limits assumed): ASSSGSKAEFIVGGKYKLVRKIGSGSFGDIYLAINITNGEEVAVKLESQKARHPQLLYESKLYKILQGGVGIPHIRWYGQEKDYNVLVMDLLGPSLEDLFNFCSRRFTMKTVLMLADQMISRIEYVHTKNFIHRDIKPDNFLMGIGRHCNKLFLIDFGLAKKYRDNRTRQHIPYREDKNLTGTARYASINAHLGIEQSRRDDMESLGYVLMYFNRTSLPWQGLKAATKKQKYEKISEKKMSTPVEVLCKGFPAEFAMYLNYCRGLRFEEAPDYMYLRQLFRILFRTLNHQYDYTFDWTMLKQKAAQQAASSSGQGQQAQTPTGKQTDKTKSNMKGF
Sequence of MAP kinase-interacting serine/threonine-protein kinase 2 (Homo sapiens) (Q9HBH9 whole entry, looked up): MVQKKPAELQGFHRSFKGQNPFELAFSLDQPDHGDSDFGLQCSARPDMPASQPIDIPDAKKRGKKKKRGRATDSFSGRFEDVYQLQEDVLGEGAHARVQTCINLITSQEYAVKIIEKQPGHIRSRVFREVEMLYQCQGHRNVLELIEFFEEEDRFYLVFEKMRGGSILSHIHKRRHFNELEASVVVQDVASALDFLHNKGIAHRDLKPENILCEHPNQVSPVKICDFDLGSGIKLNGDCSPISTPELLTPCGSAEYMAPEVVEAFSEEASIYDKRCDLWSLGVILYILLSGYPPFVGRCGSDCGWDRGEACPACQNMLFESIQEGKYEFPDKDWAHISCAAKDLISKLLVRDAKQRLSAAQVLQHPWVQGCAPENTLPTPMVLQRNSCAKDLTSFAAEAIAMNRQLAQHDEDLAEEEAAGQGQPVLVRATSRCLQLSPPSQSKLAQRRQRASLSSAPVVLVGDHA
Sequence of Proto-oncogene tyrosine-protein kinase Src (Homo sapiens) (P12931 2-536 limits assumed): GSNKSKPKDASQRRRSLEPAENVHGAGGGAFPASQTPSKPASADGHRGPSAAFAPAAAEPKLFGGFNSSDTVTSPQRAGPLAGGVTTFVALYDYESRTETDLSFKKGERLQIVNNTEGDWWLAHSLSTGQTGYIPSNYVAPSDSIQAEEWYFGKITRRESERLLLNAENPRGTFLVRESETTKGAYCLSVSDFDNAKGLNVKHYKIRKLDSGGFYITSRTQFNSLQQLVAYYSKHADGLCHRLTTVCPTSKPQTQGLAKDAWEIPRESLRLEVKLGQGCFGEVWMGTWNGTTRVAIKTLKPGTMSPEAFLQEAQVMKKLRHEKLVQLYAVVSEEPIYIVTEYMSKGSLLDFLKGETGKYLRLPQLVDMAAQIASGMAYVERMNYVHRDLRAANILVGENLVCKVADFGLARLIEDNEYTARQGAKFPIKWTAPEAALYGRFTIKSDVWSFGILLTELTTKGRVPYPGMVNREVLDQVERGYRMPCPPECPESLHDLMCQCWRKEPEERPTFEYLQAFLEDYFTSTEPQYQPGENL
Sequence of Mitogen-activated protein kinase 1 (Homo sapiens) (P28482 whole entry): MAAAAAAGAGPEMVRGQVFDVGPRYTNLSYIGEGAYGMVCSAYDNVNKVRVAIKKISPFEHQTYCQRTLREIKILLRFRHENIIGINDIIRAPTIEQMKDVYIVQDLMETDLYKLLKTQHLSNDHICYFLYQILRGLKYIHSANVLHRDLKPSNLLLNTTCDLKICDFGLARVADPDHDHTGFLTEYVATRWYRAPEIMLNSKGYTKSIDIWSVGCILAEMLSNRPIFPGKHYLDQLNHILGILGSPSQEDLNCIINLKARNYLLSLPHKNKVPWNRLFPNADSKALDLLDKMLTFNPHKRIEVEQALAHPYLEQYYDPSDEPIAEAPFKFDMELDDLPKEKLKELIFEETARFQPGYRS
Sequence of Insulin receptor-related protein (Homo sapiens) (P14616 27-742 limits assumed): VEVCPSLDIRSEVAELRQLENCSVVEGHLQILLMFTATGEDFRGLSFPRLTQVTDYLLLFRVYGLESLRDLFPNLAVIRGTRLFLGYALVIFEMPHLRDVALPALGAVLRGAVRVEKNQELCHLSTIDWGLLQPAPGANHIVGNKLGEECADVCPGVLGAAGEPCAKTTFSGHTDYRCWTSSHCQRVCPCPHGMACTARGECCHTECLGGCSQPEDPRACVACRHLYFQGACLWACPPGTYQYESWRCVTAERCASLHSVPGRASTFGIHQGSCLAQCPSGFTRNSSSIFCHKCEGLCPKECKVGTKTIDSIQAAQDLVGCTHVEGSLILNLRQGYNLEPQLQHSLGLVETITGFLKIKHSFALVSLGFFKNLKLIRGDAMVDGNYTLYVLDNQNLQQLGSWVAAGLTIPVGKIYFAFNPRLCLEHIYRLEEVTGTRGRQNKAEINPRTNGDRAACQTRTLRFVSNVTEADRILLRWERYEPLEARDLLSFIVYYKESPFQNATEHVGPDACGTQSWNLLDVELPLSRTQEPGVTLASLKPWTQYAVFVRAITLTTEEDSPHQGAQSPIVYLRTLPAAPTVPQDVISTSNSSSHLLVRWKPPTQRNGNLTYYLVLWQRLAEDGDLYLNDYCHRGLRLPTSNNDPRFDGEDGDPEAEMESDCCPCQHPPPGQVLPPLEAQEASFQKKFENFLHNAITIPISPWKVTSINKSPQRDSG
Sequence of Insulin receptor-related protein (Homo sapiens) (P14616 747-1297 limits assumed): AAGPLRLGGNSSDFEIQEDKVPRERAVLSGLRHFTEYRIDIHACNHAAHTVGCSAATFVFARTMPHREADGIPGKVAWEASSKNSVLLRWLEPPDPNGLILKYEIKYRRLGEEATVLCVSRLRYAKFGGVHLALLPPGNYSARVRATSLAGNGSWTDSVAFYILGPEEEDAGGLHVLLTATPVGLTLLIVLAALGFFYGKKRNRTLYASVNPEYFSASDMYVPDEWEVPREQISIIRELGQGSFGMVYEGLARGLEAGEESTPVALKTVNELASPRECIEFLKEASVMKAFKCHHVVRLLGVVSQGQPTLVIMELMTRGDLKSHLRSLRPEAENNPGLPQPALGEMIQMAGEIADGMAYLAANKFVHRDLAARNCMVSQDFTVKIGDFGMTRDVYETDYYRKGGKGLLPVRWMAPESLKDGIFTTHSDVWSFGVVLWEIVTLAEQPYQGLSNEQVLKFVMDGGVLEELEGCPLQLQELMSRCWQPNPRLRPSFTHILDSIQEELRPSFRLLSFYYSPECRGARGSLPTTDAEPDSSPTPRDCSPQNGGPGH
Sequence of SRSF protein kinase 1 (Homo sapiens) (Q96SB4 whole entry): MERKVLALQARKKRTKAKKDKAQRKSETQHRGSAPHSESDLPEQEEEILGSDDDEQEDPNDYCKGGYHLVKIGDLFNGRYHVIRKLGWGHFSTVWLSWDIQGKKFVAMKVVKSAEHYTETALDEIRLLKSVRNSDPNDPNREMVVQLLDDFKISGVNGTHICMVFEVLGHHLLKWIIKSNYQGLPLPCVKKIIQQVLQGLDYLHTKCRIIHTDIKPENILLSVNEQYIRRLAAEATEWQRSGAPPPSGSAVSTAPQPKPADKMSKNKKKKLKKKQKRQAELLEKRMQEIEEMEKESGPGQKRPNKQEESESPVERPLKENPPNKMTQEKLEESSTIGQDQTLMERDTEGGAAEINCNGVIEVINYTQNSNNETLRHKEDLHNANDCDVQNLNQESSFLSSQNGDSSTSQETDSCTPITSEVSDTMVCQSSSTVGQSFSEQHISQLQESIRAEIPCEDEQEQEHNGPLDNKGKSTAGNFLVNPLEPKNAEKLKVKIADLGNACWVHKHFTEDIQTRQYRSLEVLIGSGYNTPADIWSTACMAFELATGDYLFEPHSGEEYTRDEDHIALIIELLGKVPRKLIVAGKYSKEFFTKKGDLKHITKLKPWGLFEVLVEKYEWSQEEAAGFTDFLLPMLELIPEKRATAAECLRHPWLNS
Sequence of Serine/threonine-protein kinase pim-1 (Homo sapiens) (P11309 whole entry, looked up): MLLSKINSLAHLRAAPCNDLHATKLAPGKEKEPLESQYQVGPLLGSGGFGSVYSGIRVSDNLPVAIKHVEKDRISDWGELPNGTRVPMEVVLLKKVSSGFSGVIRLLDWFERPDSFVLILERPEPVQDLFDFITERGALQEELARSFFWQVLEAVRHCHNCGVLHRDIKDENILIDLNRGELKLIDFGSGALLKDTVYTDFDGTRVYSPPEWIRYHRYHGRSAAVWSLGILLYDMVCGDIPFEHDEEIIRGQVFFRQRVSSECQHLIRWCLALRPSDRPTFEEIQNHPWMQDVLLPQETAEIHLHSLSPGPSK
Sequence of Ephrin type-B receptor 3 (Homo sapiens) (P54753 whole entry): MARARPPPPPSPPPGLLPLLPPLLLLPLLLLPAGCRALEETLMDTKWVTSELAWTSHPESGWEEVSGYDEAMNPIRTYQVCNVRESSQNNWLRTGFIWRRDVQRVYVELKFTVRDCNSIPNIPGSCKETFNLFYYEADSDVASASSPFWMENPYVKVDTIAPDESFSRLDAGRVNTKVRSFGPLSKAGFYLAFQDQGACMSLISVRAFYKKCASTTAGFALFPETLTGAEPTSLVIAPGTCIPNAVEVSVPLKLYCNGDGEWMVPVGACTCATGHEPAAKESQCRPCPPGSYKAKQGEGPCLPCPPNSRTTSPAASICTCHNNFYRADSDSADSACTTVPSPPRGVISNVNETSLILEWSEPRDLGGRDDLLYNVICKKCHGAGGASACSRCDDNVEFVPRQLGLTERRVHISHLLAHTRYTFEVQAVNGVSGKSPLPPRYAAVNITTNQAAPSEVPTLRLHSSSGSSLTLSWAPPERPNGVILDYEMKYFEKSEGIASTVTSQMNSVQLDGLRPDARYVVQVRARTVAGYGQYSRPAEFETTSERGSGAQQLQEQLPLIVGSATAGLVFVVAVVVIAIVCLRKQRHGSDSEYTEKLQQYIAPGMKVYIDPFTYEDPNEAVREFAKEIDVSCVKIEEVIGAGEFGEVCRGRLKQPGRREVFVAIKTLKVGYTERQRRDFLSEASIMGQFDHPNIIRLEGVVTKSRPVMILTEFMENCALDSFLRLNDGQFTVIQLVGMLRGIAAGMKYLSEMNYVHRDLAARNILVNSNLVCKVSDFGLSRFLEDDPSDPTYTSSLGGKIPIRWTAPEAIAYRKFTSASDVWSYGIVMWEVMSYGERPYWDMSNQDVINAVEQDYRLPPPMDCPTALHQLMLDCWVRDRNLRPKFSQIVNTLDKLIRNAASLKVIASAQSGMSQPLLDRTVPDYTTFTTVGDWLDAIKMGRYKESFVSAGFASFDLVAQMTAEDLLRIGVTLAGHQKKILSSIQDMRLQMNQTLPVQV

In the case of `CN1CCC(c2nc(-c3ccc(F)c(NS(C)(=O)=O)c3)c(-c3ccnc(NCC4CC4)n3)s2)CC1`, the Papp [1] is reported as 5.7 ×10⁻⁶ cm/s, the inhibition [2] is reported as < 70% and the inhibition [3] is reported as < 70%. For the same compound, the inhibition [4] was < 70%, the inhibition [5] was < 70% and the inhibition [6] was < 70%. For the same compound, the inhibition [7] was < 70%, the inhibition (Homo sapiens) was < 70% and the inhibition [8] was < 70%. For the same compound, the inhibition [9] was < 70%, the inhibition [10] was < 70% and the inhibition [11] was < 70%. For the same compound, the inhibition [12] was < 70%, the inhibition [13] was < 70% and the inhibition [14] was < 70%.

With `CN1CCC(c2nc(-c3cccc(S(C)(=O)=O)c3)c(-c3ccnc(Nc4ccc(N5CCNCC5)cc4)n3)s2)CC1` the inhibition [2] was < 70%, the inhibition [3] was < 70% and the inhibition [4] was < 70%. For the same compound, the IC50 [15] was 0.9 nM, the inhibition [5] was < 70% and the inhibition [6] was < 70%. The inhibition [7] was < 70%, the inhibition (Homo sapiens) was < 70% and the inhibition [8] was < 70%. The inhibition [9] was < 70%, the inhibition [16] was < 70% and the inhibition [10] was < 70%. For the same compound, the inhibition [11] was < 70%, the inhibition [12] was < 70% and the inhibition [13] was < 70%. For the same compound, the inhibition [14] was < 70%.

Reference: ChEMBL document CHEMBL4265899, “Trisubstituted thiazoles as potent and selective inhibitors of Plasmodium falciparum protein kinase G (PfPKG)” (Bioorg Med Chem Lett, 2018)
